Experimental data published in US8871753B2, “Macrocyclic compounds and their use as kinase inhibitors” (Incyte Corporation, priority 2008, dated 2014).
Where a name gives a salt, the structure may show the parent alone. Read-outs that look alike come from different tables or passages of the source.

Key:
Type in all cases: biochemical
[1] = molecular target: T1, human JAK1 (a.a. 837-1142) (Homo sapiens, UniProt P23458); assay: In vitro JAK kinase assay (HTRF, phosphorylation of a biotinylated peptide), JAK1; conditions: read-out: JAK1 IC50
T1 construct: human JAK1 (a.a. 837-1142); His tag (N); made in house; host or cells: insect cells (baculovirus)
Summary of the method: (§1)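 Kinase activity was measured as phosphorylation of a biotinylated peptide, with ATP at 90 μM for JAK1, 30 μM for JAK2 and 3 μM for JAK3. Reactions ran 1 hr at room temperature, were stopped with EDTA plus SA-APC and Eu-Py20, and were read by HTRF after 40 minutes of antibody binding.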

[2] = molecular target: T2, human JAK2 (a.a. 828-1132) (Homo sapiens, UniProt O60674); assay: In vitro JAK kinase assay (HTRF, phosphorylation of a biotinylated peptide), JAK2
T2 construct: JAK2 (a.a. 828-1132); His tag (N); made in house; host or cells: insect cells (baculovirus)
Summary of the method: as §1

[3] = molecular target: T3, human JAK3 (a.a. 781-1124) (Homo sapiens, UniProt P52333); assay: In vitro JAK kinase assay (HTRF, phosphorylation of a biotinylated peptide), JAK3
T3 construct: JAK3 (a.a. 781-1124); His tag (N); made in house; host or cells: insect cells (baculovirus)
Summary of the method: as §1

[4] = molecular target: TYK2 (Homo sapiens, UniProt P29597); assay: TYK2 kinase inhibition (Table A1)
[5] = molecular target: T4, Recombinant Human Anaplastic Lymphoma Kinase (Homo sapiens, UniProt Q9UM73); assay: ALK HTRF kinase assay
T4 construct: purchased Invitrogen, Carlsbad, Calif
Summary of the method: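 Kinase activity of the recombinant human protein is measured on a biotinylated peptide, with a Eu-W1024 anti-phosphotyrosine antibody and streptavidin-allophycocyanin generating the homogeneous time-resolved fluorescence signal. Inhibition curves are fitted to yield IC50.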

[6] = method AA1 (90 μM ATP) or AA2 (1000 μM ATP), not stated per value
[7] = method AA1 (30 μM ATP) or AA2 (1000 μM ATP), not stated per value
[8] = method AA1 (3 μM ATP) or AA2 (1000 μM ATP), not stated per value
[9] = compound at 500 nM or 1 mM, 90 μM ATP
[10] = Table B1, cells without percent sign
[11] = compound at a concentration of 500 nM or 1 mM (not specified), cells shown as percentage
[12] = percentage inhibition of the example compound at a concentration of 500 nM or 1 mM (not specified which)

T1 sequence (P23458 849-1154): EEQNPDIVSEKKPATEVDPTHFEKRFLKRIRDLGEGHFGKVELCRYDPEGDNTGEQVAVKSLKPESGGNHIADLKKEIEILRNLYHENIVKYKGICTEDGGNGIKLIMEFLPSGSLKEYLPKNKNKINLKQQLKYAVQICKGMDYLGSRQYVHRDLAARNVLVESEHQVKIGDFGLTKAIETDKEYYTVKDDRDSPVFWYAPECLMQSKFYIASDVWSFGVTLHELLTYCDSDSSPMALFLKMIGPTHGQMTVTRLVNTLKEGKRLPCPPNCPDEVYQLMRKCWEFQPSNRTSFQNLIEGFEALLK
T2 sequence (O60674 828-1132): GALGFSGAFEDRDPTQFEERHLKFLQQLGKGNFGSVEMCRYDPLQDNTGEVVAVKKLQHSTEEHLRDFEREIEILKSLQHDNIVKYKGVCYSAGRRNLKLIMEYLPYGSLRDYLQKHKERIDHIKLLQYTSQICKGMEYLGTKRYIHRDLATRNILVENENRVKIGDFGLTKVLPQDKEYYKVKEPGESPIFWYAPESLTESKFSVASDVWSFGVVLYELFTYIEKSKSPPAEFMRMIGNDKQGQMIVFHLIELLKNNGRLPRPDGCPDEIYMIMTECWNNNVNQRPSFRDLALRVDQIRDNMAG
Chain of TYK2 (P29597 whole entry): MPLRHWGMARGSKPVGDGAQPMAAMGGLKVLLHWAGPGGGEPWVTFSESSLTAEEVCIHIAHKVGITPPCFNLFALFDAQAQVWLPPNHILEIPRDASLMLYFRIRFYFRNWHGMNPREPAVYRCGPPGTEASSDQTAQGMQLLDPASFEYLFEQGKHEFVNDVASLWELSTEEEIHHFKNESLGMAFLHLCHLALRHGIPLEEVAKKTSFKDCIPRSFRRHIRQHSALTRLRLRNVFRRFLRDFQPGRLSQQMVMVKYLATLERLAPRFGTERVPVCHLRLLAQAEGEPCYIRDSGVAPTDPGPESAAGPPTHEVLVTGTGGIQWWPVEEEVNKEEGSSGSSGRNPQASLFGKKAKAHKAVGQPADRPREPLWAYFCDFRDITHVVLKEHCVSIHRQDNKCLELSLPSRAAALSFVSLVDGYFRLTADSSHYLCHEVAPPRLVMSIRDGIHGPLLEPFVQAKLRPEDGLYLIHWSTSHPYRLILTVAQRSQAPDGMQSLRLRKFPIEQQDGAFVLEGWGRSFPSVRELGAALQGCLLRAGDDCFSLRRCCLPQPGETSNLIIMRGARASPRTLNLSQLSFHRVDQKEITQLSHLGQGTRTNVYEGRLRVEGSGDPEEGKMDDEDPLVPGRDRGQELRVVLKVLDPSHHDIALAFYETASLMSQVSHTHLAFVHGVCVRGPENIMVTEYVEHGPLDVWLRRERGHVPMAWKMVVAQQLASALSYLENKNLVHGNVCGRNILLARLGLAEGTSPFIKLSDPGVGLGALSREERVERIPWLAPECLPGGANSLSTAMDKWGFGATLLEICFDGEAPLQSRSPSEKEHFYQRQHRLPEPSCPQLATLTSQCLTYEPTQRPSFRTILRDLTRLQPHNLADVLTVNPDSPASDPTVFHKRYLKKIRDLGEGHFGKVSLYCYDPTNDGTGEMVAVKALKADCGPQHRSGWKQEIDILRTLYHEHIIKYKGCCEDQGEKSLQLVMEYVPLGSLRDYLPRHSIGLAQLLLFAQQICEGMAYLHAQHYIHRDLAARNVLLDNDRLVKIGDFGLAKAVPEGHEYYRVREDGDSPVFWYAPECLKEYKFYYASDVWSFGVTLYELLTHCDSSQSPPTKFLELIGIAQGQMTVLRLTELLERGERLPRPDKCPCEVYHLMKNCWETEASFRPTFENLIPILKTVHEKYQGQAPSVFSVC
T3 sequence (P52333 781-1124): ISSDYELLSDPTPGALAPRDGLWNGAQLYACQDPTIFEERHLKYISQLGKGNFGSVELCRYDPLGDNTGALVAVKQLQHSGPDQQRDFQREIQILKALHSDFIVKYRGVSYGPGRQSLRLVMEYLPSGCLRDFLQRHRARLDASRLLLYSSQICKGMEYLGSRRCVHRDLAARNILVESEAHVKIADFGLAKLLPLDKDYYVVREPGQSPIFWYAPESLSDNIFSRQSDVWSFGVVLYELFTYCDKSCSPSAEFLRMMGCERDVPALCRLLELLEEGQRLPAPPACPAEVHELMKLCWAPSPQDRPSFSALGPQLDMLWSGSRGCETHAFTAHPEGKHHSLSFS
T4 sequence (Q9UM73 19-1620): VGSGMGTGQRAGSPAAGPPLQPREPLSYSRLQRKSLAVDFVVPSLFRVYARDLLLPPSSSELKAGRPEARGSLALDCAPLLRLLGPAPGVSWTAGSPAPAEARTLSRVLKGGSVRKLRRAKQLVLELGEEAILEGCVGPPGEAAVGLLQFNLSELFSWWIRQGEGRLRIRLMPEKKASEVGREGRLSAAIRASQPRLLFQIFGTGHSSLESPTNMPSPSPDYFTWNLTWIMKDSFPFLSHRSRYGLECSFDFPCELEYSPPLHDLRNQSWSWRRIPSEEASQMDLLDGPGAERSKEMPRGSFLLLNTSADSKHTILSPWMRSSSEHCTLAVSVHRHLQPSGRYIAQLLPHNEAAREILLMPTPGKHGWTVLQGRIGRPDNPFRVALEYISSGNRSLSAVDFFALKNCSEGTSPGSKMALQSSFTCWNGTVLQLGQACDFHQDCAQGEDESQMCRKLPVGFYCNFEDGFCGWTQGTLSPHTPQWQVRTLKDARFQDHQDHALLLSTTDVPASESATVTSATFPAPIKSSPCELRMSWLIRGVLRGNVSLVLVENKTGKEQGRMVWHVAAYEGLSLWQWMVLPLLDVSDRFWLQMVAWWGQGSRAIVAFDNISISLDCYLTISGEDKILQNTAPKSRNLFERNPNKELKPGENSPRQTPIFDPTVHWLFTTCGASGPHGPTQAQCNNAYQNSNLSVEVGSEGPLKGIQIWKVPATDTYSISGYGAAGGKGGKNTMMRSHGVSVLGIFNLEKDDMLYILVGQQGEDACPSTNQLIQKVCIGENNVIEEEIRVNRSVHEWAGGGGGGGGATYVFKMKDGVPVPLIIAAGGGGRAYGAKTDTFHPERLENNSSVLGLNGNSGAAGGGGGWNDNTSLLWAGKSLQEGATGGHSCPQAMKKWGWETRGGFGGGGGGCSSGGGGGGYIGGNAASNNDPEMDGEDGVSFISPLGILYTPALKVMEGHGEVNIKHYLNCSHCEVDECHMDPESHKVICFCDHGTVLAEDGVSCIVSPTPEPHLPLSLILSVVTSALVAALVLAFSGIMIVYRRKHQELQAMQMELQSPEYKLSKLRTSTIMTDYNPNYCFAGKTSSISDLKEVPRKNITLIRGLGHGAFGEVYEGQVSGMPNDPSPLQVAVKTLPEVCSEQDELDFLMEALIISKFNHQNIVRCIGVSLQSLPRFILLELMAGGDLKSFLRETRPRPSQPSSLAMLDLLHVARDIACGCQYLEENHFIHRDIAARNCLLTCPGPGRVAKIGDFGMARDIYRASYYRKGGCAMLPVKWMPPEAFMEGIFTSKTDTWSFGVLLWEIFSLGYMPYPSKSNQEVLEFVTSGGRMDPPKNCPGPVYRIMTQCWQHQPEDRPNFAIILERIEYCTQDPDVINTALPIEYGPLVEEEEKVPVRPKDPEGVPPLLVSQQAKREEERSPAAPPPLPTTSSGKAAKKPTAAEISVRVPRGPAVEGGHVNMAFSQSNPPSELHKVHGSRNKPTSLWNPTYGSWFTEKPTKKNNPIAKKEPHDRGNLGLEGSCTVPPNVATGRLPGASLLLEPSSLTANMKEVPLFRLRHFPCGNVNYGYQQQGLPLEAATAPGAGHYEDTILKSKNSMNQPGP

IC50 [1, 6] [nM] | IC50 [2, 7] [nM] | IC50 [3, 8] [nM] | IC50 [4] [nM] | ALK % of inhibition at a concentration of 500 nM or 1 mM [5, 9] [%] | IC50 ([1]; Table B1) [nM] | IC50 ([2]; Table B1) [nM] | IC50 ([3]; Table B1) [nM] | IC50 ([4]; Table B1) [nM] | SMILES | also measured
0.4 | 2.4 | > 100 | 2.4 | 37 | – | – | – | – | COc1ccccc1NC(=O)N1CCC(CC(=O)Nc2ccc3cc2CCc2cncc(c2)Nc2ncc(Cl)c(n2)N3)CC1 [Example A152, 4-(2-{[6-Chloro-2,4,8,18,22-pentaazatetracyclo[14.3.1.1(3,7).1(9,13)]docosa-1(20),3(22),4,6,9(21),10,12,16,18-nonaen-12-yl]amino}-2-oxoethyl)-N-(2-methoxyphenyl)piperidine-1-carboxamide bis(trifluoroacetate)] | –
– | – | – | – | – | 0.42 | 0.11 | 6.4 | 0.27 | O=S(=O)(Nc1ccc2cc1CCc1cccc(c1)Nc1ncc(Cl)c(n1)N2)c1ccccc1Cl [Example B137, 2-Chloro-N-[6-chloro-2,4,8,22-tetraazatetracyclo[14.3.1.1(3,7).1(9,13)]docosa-1(20),3(22),4,6,9(21),10,12,16,18-nonaen-12-yl]benzenesulfonamide trifluoroacetate] | IC50 [5, 10]: 580 nM
57 | 6.2 | 26 | 98 | 65 | – | – | – | – | COc1cc2cc(c1)Nc1nc(ncc1Cl)Nc1cccc(c1)CC2 [Example A21, 6-Chloro-11-methoxy-2,4,8,22-tetraazatetracyclo[14.3.1.1(3,7).1(9,13)]docosa-1(20),3(22),4,6,9(21),10,12,16,18-nonaene trifluoroacetate] | –
14 | 7.5 | 11 | 39 | 24 | – | – | – | – | CCNC(=O)N1CCCC(C(=O)Nc2ccc3cc2CCc2cccc(c2)Nc2ncc(Cl)c(n2)N3)C1 (stereo not shown) [Example A49, N(3)-[6-Chloro-2,4,8,22-tetraazatetracyclo[14.3.1.1(3,7).1(9,13)]docosa-1(20),3(22),4,6,9(21),10,12,16,18-nonaen-12-yl]-N(1)-ethylpiperidine-1,3-dicarboxamide trifluoroacetate] | –
51 | > 200 | > 200 | > 200 | 25 | – | – | – | – | Cc1ccnc(N2CCC(CC(=O)Nc3ccc4cc3CCc3cncc(c3)Nc3ncc(Cl)c(n3)N4)CC2)c1 [Example A176, N-[6-Chloro-2,4,8,18,22-pentaazatetracyclo[14.3.1.1(3,7).1(9,13)]docosa-1(20),3(22),4,6,9(21),10,12,16,18-nonaen-12-yl]-2-[1-(4-methylpyridin-2-yl)piperidin-4-yl]acetamide tris(trifluoroacetate)] | –
– | – | – | – | – | 3 | 1.6 | 13 | 4.5 | COc1cccc(C(=O)Nc2ccc3cc2CCc2cccc(c2)Nc2ncc(Cl)c(n2)N3)c1 [Example B66, N-[6-Chloro-2,4,8,22-tetraazatetracyclo[14.3.1.1(3,7).1(9,13)]docosa-1(20), 3(22),4,6,9(21),10,12,16,18-nonaen-12-yl]-3-methoxybenzamide trifluoroacetate] | IC50 [5, 10]: 310 nM
– | – | – | – | – | 0.69 | 0.1 | 0.48 | 0.44 | N#Cc1cccc(S(=O)(=O)Nc2ccc3cc2CCc2cccc(c2)Nc2ncc(Cl)c(n2)N3)c1 [Example B153, N-[6-Chloro-2,4,8,22-tetraazatetracyclo[14.3.1.1(3,7).1(9,13)]docosa-1(20),3(22),4,6,9(21),10,12,16,18-nonaen-12-yl]-3-cyanobenzenesulfonamide trifluoroacetate] | IC50 [5, 10]: 70 nM
– | – | – | – | – | 13 | 26 | 119 | 62 | O=C(Nc1ncc(Cl)s1)Nc1ccc2cc1CCc1cccc(c1)Nc1ncc(Cl)c(n1)N2 [Example B252, N-[6-Chloro-2,4,8,22-tetraazatetracyclo[14.3.1.1(3,7).1(9,13)]docosa-1(20),3(22),4,6,9(21),10,12,16,18-nonaen-12-yl]-N′-(5-chloro-1,3-thiazol-2-yl)urea trifluoroacetate] | ALK % of inhibition at a concentration of 500 nM or 1 mM [5, 11]: 20%
– | – | – | – | – | 15 | 148 | > 400 | 38 | O=C(Nc1ccc2cc1CCc1cncc(c1)Nc1ncc(Cl)c(n1)N2)N1CCN(c2ccccc2Cl)CC1 [Example B305, N-[6-Chloro-2,4,8,18,22-pentaazatetracyclo[14.3.1.1(3,7).1(9,13)]docosa-1(20),3(22),4,6,9(21),10,12,16,18-nonaen-12-yl]-4-(2-chlorophenyl)piperazine-1-carboxamide bis(trifluoroacetate)] | ALK % of inhibition at a concentration of 500 nM or 1 mM [5, 12]: 79%
– | – | – | – | – | 4 | 6.1 | 7.1 | 16 | O=C(NCCNS(=O)(=O)c1ccc(Cl)s1)Nc1ccc2cc1CCc1cccc(c1)Nc1ncc(Cl)c(n1)N2 [Example B330, 5-Chloro-N-{2-[({[6-chloro-2,4,8,22-tetraazatetracyclo[14.3.1.1(3,7).1(9,13)]docosa-1(20),3(22),4,6,9(21),10,12,16,18-nonaen-12-yl]amino}carbonyl)amino]ethyl}thiophene-2-sulfonamide trifluoroacetate] | ALK % of inhibition at a concentration of 500 nM or 1 mM [5, 12]: 21%
– | – | – | – | – | – | – | – | – | CS(=O)(=O)N1CCN(c2ccc(-c3cc4cc(c3)Nc3ncc(Cl)c(n3)Nc3cccc(c3)OCC4)cn2)CC1 [Example D38, 6-Chloro-19-{6-[4-(methylsulfonyl)piperazin-1-yl]pyridin-3-yl}-14-oxa-2,4,8,23-tetraazatetracyclo[15.3.1.1(3,7).1(9,13)]tricosa-1(21),3(23),4,6,9(22),10,12,17,19-nonaene bis(trifluoroacetate)] | IC50 ([1]; Table D1): 1.1 nM; IC50 ([2]; Table D1): 0.9 nM; IC50 ([3]; Table D1): 19 nM; IC50 ([4]; Table D1): 4 nM; IC50 ([5]; Table D1, 90 μM ATP): 442 nM
– | – | – | – | – | 1.4 | 5.2 | 29 | 8.8 | CCNC(=O)Nc1ccc2cc1CCc1cccc(c1)Nc1ncc(Cl)c(n1)N2 [Example B115, N-[6-Chloro-2,4,8,22-tetraazatetracyclo[14.3.1.1(3,7).1(9,13)]docosa-1(20), 3(22),4,6,9(21),10,12,16,18-nonaen-12-yl]-N′-ethylurea trifluoroacetate] | ALK % of inhibition at a concentration of 500 nM or 1 mM [5, 11]: 23%
13 | 6.5 | 30 | 23 | 23 | – | – | – | – | O=C(CC1CCN(C(=O)NC2CCCC2)CC1)Nc1ccc2cc1CCc1cccc(c1)Nc1ncc(Cl)c(n1)N2 [Example A64, 4-(2-{[6-Chloro-2,4,8,22-tetraazatetracyclo[14.3.1.1(3,7).1(9,13)]docosa-1(20),3(22),4,6,9(21),10,12,16,18-nonaen-12-yl]amino}-2-oxoethyl)-N-cyclopentylpiperidine-1-carboxamide trifluoroacetate] | –
– | – | – | – | – | 4 | 5.3 | 61 | 9.7 | Cc1ccc(NC(=O)Nc2ccc3cc2CCc2cccc(c2)Nc2ncc(Cl)c(n2)N3)cc1 [Example B92, N-[6-Chloro-2,4,8,22-tetraazatetracyclo[14.3.1.1(3,7).1(9,13)]docosa-1(20),3(22),4,6,9(21),10,12,16,18-nonaen-12-yl]-N′-(4-methylphenyl)urea trifluoroacetate] | IC50 [5, 10]: > 1000 nM
– | – | – | – | – | – | – | – | – | Clc1cnc2nc1Nc1cccc(c1)OCCc1cc(cc(-c3ccncc3)c1)N2 [Example D25, 6-Chloro-19-pyridin-4-yl-14-oxa-2,4,8,23-tetraazatetracyclo[15.3.1.1(3,7).1(9,13)]tricosa-1(21),3(23),4,6,9(22),10,12,17,19-nonaene bis(trifluoroacetate)] | IC50 ([1]; Table D1): 1.1 nM; IC50 ([2]; Table D1): 0.3 nM; IC50 ([3]; Table D1): 8.8 nM; IC50 ([4]; Table D1): 2.1 nM; IC50 ([5]; Table D1, 90 μM ATP): 110 nM
1.3 | 8.6 | > 200 | 85 | 45 | – | – | – | – | O=C(CC1CCN(S(=O)(=O)c2cccnc2)CC1)Nc1ccc2cc1CCc1cccc(c1)Nc1ncc(Cl)c(n1)N2 [Example A212, N-[6-Chloro-2,4,8,22-tetraazatetracyclo[14.3.1.1(3,7).1(9,13)]docosa-1(20),3(22),4,6,9(21),10,12,16,18-nonaen-12-yl]-2-[1-(pyridin-3-ylsulfonyl)piperidin-4-yl]acetamide bis(trifluoroacetate)] | –
– | – | – | – | – | 0.85 | 1 | 13 | 5.6 | O=C(Nc1ccc2cc1CCc1cccc(c1)Nc1ncc(Cl)c(n1)N2)c1cccs1 [Example B34, N-[6-Chloro-2,4,8,22-tetraazatetracyclo[14.3.1.1(3,7).1(9,13)]docosa-1(20),3(22),4,6,9(21),10,12,16,18-nonaen-12-yl]thiophene-2-carboxamide trifluoroacetate] | IC50 [5, 10]: 470 nM
